Earlier results in patent US20230263779A1, “METHODS OF TREATING SOLID TUMORS USING NANOPARTICLE MTOR INHIBITOR COMBINATION THERAPY” (Abraxis BioScience, LLC, priority 2015, published 2023).

Experiments:
[1] = test system: ABCB1/ABCG2
[2] = in vivo

COc1ccc(COc2cc3oc(=O)c4cc(C(C)O)ccc4c3cc2OC)cc1 (centres unmarked) [Palomid 529]
affinity for ABCB1/ABCG2 [1]: lacks affinity | brain penetration [2]: good brain penetration
